Measured values as given in patent US11414436B2, “Non-coordinating anion type activators containing cation having large alkyl groups” (ExxonMobil Chemical Patents Inc., priority 2018, dated 2022).
“And” between values parts separate entries of the source, which are not always exact repeats. Equal entries are not always repeated. Blank lines part the entries; values can stand above or below the compound they belong to.

Columns and labels:
[1] = Ethylene-octene copolymerization in parallel pressure reactor, non-metallocene catalyst CAT-4; settings: catalyst CAT-4 20 nmol; activator 1.1 equiv; 100° C.; 135 psi; 1-octene 100 uL; TNOAL 0.5 umol
Procedure: (§1) Solutions of the metal complexes and activators were prepared in a drybox using toluene or methylcyclohexane. Concentrations were typically 0.2 mmol/L. Tri-n-octylaluminum (TNOAL, neat, AkzoNobel) was typically used as a scavenger. Concentration of the TNOAL solution in toluene ranged from 0.5 to 2.0 mmol/L.
(§2) Polymerizations were carried out in a parallel pressure reactor, as generally described in U.S. Pat. Nos. 6,306,658; 6,455,316; 6,489,168; WO 00/09255; and Murphy, V. et al. (2003) “A Fully Integrated High-Throughput Screening Methodology for the Discovery of New Polyolefin Catalysts: Discovery of a New Class of High Temperature Single-Site Group (IV) Copolymerization Catalysts,” J. Am. Chem. Soc., v. 125, pp. 4306-4317, each of which is fully incorporated herein by reference. […] Although the specific quantities, temperatures, solvents, reactants, reactant ratios, pressures, and other variables are frequently changed from one polymerization run to the next, the following describes a typical polymerization performed in a parallel pressure reactor.
(§3) Ethylene-Octene Copolymerization (EO).
(§4) A pre-weighed glass vial insert and disposable stirring paddle were fitted to each reaction vessel of the reactor, which contains 48 individual reaction vessels. The reactor was then closed and purged with ethylene. Each vessel was charged with enough solvent (typically isohexane) to bring the total reaction volume, including the subsequent additions, to the desired volume, typically 5 mL. 1-octene, if required, was injected into the reaction vessel and the reactor was heated to the set temperature and pressurized to the predetermined pressure of ethylene, while stirring at 800 rpm. The aluminum compound (such as tri-n-octylaluminum) in toluene was then injected as scavenger followed by addition of the activator solution (typically 1.0-1.2 molar equivalents).
(§5) The catalyst (and activator solutions for Run A) were all prepared in toluene. The catalyst solution (typically 0.020-0.080 μmol of metal complex) was injected into the reaction vessel and the polymerization was allowed to proceed until a pre-determined amount of ethylene (quench value typically 20 psi) had been used up by the reaction. Alternatively, the reaction may be allowed to proceed for a set amount of time (maximum reaction time typically 30 minutes). Ethylene was added continuously (through the use of computer controlled solenoid valves) to the autoclaves during polymerization to maintain reactor gauge pressure (P setpt, +/−2 psig) and the reactor temperature (T) was monitored and typically maintained within +/−1° C. The reaction was quenched by pressurizing the vessel with compressed air. After the reactor was vented and cooled, the glass vial insert containing the polymer product and solvent was removed from the pressure cell and the inert atmosphere glove box, and the volatile components were removed using a Genevac HT-12 centrifuge and Genevac VC3000D vacuum evaporator operating at elevated temperature and reduced pressure. The vial was then weighed to determine the yield of the polymer product. The resultant polymer was analyzed by Rapid GPC (see below) to determine the molecular weight, by FT-IR (see below) to determine percent octene incorporation, and by DSC (see below) to determine melting point (Tm).
(§6) Equivalence is determined based on the mole equivalents relative to the moles of the transition metal in the catalyst complex.
(§7) Activators of the present disclosure can also be used for activating non-metallocene catalysts for polymerization of olefins. Table 4 illustrates copolymerization of ethylene and octene using activators of the present disclosure and non-metallocene catalysts (CAT-1, CAT-2, CAT-3, and CAT-4).

[2] = Ethylene-octene copolymerization in parallel pressure reactor, non-metallocene catalyst CAT-3; settings: catalyst CAT-3 20 nmol; activator 1.1 equiv; 100° C.; 135 psi; 1-octene 100 uL; TNOAL 0.5 umol
Procedure: as §1, §2, §3, §4, §5, §6, §7

[3] = Solubility studies of the activators (saturated solution in isohexane or methylcyclohexane); type: physicochemical; settings: methylcyclohexane
[4] = Ethylene-octene copolymerization in parallel pressure reactor, non-metallocene catalyst CAT-1; settings: catalyst CAT-1 20 nmol; activator 1.1 equiv; 100° C.; 135 psi; 1-octene 100 uL; TNOAL 0.5 umol
Procedure: as §1, §2, §3, §4, §5, §6, §7

[5] = Ethylene-octene copolymerization in parallel pressure reactor, non-metallocene catalyst CAT-2; settings: catalyst CAT-2 20 nmol; activator 1.1 equiv; 100° C.; 135 psi; 1-octene 100 uL; TNOAL 0.5 umol
Procedure: as §1, §2, §3, §4, §5, §6, §7

[6] = Solubility studies of the activators (saturated solution in isohexane or methylcyclohexane); type: physicochemical
Procedure: Solubility Studies of the Activators
Procedure for Solid Activators.
A saturated solution of each of the solid ammonium borate activators was prepared by stirring an excess of the activator with either isohexane or methylcyclohexane solvent for several hours at 25° C. The mixture was then filtered and a known volume of the filtrate was evaporated to dryness in a tared vial. The vial was then weighed to determine the mass of activator that was dissolved in the aliquot. The concentration of the saturated solution is presented in millimoles of activator per liter of solution (mM).
Procedure for Activators that Form Emulsions.
A saturated solution of the activator was prepared by slowly adding the solvent to a pre-weighed amount of the activator. The final volume was determined as the minimum amount of solvent required to convert the emulsion into a homogeneous solution. The concentration of the saturated solution is presented in millimoles of activator per liter of solution (mM). Alternatively, an emulsion of the activator was prepared by adding the solvent to an excess amount of activator. The resulting emulsion was separated from the undissolved solids by decanting the emulsion into a tared vial. Solvent was then added dropwise until the emulsion became homogeneous. The mass of the final solution was measured and then the solvent was evaporated to dryness to obtain the mass of the activator. The concentration of the saturated solution is presented in millimoles of activator per liter of solution (mM).

[7] = Ethylene homopolymerization (PE) in parallel pressure reactor, MCN-1; settings: MCN-1 = 20 nmol, activator = 22 nmol, 80° C., 75 PSI
Procedure: Ethylene homopolymerization (PE).
A series of ethylene polymerizations were performed in the parallel pressure reactor sinilar to the procedure described above. In these studies rac-dimethylsilyl- bis(indenyl)hafnium dimethyl (MCN-1) was used along with ammonium borate activators .

[8] = Ethylene-octene copolymerization (EO) in parallel pressure reactor, MCN-1 (Table 6); settings: MCN-1 = 20 nmol, activator = 22 nmol, 1-octene 100 μL, 80° C., 75 PSI
Procedure: as §3, §4, §5
A series of ethylene-octene polymerizations were performed in the parallel pressure reactor according to a similar procedure as described above. In these studies rac-dimethylsilyl-bis(indenyl)hafnium dimethyl (MCN-1) was used along with ammonium borate activators.

[9] = RUN B: ethylene-octene polymerization in parallel pressure reactor, activator diluent toluene or methylcyclohexane; settings: ethylene-octene copolymerization
Procedure: RUN B: Polymerization in Parallel Pressure Reactor.
A series of ethylene-octene polymerizations were performed in the parallel pressure reactor according to the procedure described above. […] In a typical experiment an automated syringe was used to introduce into the reactor the following reagents, if utilized, in the following order: isohexane (0.35 mL), an isohexane solution of TNOAL scavenger (0.005 M, 60 μL), additional isohexane (0.35 mL), a toluene solution of the respective polymerization catalyst (150 μL, 0.4 mM, 20 nm [cat]/100 μL [toluene]), additional isohexane (0.35 mL), a toluene or methylcyclohexane solution of the respective activator (150 μL, 0.4 mM, (20 nm [act]/100 μL[ diluent])), then additional isohexane so that the total solvent volume for each run was 5 mL. Catalyst and activator were used in a 1:1 ratio. Each reaction was performed at a specified temperature range between 50 and 120° C., typically 95° C., while applying about 100 psig of ethylene (monomer) gas. Each reaction was allowed to run for about 1 hour (˜3600 seconds) or until approximately 20 psig of ethylene gas uptake was observed, at which point the reactions were quenched with air (˜300 psig). When sufficient polymer yield was attained (e.g., at least ˜10 mg), the polyethylene product was analyzed by Rapid GPC, described below.
In a typical experiment, the anilinium borate activators were combined with toluene or methylcyclohexane as diluent and introduced to the parallel, pressure reactor via syringe. By this mechanism of activator introduction, only well dissolved activators could be delivered to the reactor providing a means to discriminate between the polymerization performance of long chain soluble anilinium borates vs. conventional anilinium borates. Following addition of activator, the catalyst Cat 1 was introduced, via syringe as well-dissolved toluene solution and the polymerization was conducted per the methodology described above.

[10] = Propylene homopolymerization in parallel pressure reactor, MCN-1 with ammonium borate activators
Excerpt: Polymerization in Parallel Pressure Reactor
Solvents, polymerization-grade toluene, and isohexane were supplied by ExxonMobil Chemical Company and purified by passing through a series of columns: two 500 cc Oxyclear cylinders in series from Labclear (Oakland, Calif.), followed by two 500 cc columns in series packed with dried 3 Å mole sieves (8-12 mesh; Aldrich Chemical Company), and two 500 cc columns in series packed with dried 5 Å mole sieves (8-12 mesh; Aldrich Chemical Company). 1-octene (C8) and 1-hexene (C6) (98%, Aldrich Chemical Company) were dried by stirring over NaK overnight followed by filtration through basic alumina (Aldrich Chemical Company, Brockman Basic 1).
as §1, §2
Catalyst systems dissolved in solution were used in the polymerization examples below, unless specified otherwise.
RUN A: Propylene Homopolymerization (PP).
The reactor was prepared as described above and purged with propylene. For the examples in Table 2, the catalyst and activator solutions were prepared in toluene. […] Isohexane was then injected into each vessel at room temperature followed by a predetermined amount of propylene gas. The reactor was heated to the set temperature while stirring at 800 rpm, and the scavenger, activator and catalyst solutions were injected sequentially to each vessel. The polymerization was allowed to proceed as described previously.
A series of propylene polymerizations were performed in parallel pressure reactors (PPRs) developed by Symyx Technologies, Inc. In these polymerizations, the metallocene rac-dimethylsilyl-bis(indenyl)hafnium dimethyl (MCN-1) was used along with several different ammonium borate activators. Polymerizations were performed at 85° C. and 100° C.
Propylene homopolymerization (PP).
A series of propylene polymerizations were performed in the parallel pressure reactor similar to the procedure described above. In these studies rac-dimethylsilyl-bis(indenyl)hafnium dimethyl (MCN-1) was used along with ammonium borate activators.

Solubility limit in MeCy (wt % at 25° C.) [3]: 19 wt %
Solubility limit in i-hexane (mM at 25° C.) ([6]; isohexane): 19 mM
Solubility limit in i-hexane (wt % at 25° C.) ([6]; isohexane): 3.7 wt %
Solubility limit in MeCy (mM at 25° C.) ([6]; methylcyclohexane): 110 mM
Compound: CCCCCCCCCCCCCCCCCC[NH+](CCCCCCCCCCCCCCCCCC)c1ccc(C)cc1.Fc1c(F)c(F)c([B-](c2c(F)c(F)c(F)c(F)c2F)(c2c(F)c(F)c(F)c(F)c2F)c2c(F)c(F)c(F)c(F)c2F)c(F)c1F [DOdTH-BF20, 4-methyl-N,N-dioctadecylbenzenaminium-BF20]
activity [1]: 46 kg/mmol/h and 48 kg/mmol/h
activity [2]: 647 kg/mmol/h and 732 kg/mmol/h
activity [4]: 3716 kg/mmol/h and 3736 kg/mmol/h
activity [5]: 1267 kg/mmol/h and 1154 kg/mmol/h

Compound: CCCCCCCCCCCCCCCCCC[NH+](C)c1ccc(CCCCCCCCCCC)cc1.Fc1c(F)c(F)c([B-](c2c(F)c(F)c(F)c(F)c2F)(c2c(F)c(F)c(F)c(F)c2F)c2c(F)c(F)c(F)c(F)c2F)c(F)c1F [UOMAH-BF20]
activity [7]: 332.5 kg/mmol/h and 317.6 kg/mmol/h and 310.3 kg/mmol/h and 400.0 kg/mmol/h
activity [8]: 502.3 kg/mmol/h and 455.9 kg/mmol/h and 521.4 kg/mmol/h and 421.0 kg/mmol/h

Compound: CCCCCCCCCCCCCCCCCC[NH+](C)c1ccc(CCCCCCCCCCC)cc1.Fc1c(F)c(F)c2c(F)c([B-](c3c(F)c(F)c4c(F)c(F)c(F)c(F)c4c3F)(c3c(F)c(F)c4c(F)c(F)c(F)c(F)c4c3F)c3c(F)c(F)c4c(F)c(F)c(F)c(F)c4c3F)c(F)c(F)c2c1F [UOMAH-BF28, 4-Undecyl-N-methyl-N-octadecylanilinium-BF28]
activity [7]: 250.9 kg/mmol/h and 186.5 kg/mmol/h
activity [8]: 366.1 kg/mmol/h and 358.9 kg/mmol/h

Compound: N,N-Dimethylanilinium tetrakis(pentafluorophenyl)borate [DMAH-BF20, reference compound]
activity [7]: 288.7 kg/mmol/h and 407.1 kg/mmol/h
activity [1]: 76 kg/mmol/h and 45 kg/mmol/h
activity [2]: 819 kg/mmol/h and 698 kg/mmol/h
activity [8]: 644.4 kg/mmol/h and 509.4 kg/mmol/h
activity [4]: 2977 kg/mmol/h and 2469 kg/mmol/h
quantity of polymer obtained with methylcyclohexane as diluent ([9]; Cat 1, activator in methylcyclohexane): insufficient for analysis
activity ([9]; Cat 1 (MCN-1), activator diluent Toluene, listed as C1): 764.2 kg/mmol/h and 675.0 kg/mmol/h and 659.1 kg/mmol/h and 680.5 kg/mmol/h
activity [5]: 1140 kg/mmol/h and 916 kg/mmol/h

Compound: N-methyl-4-nonadecyl-N-octadecylanilinium tetrakis(pentafluorophenyl)borate [NOMAH-BF20]
activity [7]: 215.4 kg/mmol/h and 237.5 kg/mmol/h and 399.2 kg/mmol/h and 340.1 kg/mmol/h
activity [8]: 430.9 kg/mmol/h and 414.1 kg/mmol/h and 478.7 kg/mmol/h and 409.6 kg/mmol/h

Compound: N-methyl-4-nonadecyl-N-octadecylanilinium tetrakis(perfluoronaphthalen-2-yl)borate [NOMAH-BF28]
activity [7]: 213.1 kg/mmol/h and 202.3 kg/mmol/h and 173.6 kg/mmol/h and 272.1 kg/mmol/h
average catalyst activity, comparison of the four activators (FIG. 6) ([10]; MCN-1, polypropylene at 100° C., Table 7 runs): highest average activities
activity ([10]; propylene 150 psi, 100° C., MCN-1 = 30 nmol, activator = 33 nmol, isohexane, TNOAL 500 nmol): 141 kg/mmol/h and 208 kg/mmol/h and 193 kg/mmol/h and 210 kg/mmol/h and 181 kg/mmol/h and 178 kg/mmol/h and 223 kg/mmol/h and 207 kg/mmol/h
activity [8]: 302.1 kg/mmol/h and 321.1 kg/mmol/h and 300.0 kg/mmol/h and 345.5 kg/mmol/h
